Experimental data: paper PMC2920882 (BMC Cancer, 2010)
“Also recorded” adds a separate entry of the source. Numbered stars: 1 amine (or outer) side, 2 acyl side, 3 side chain; on linkers, the order of the positions; unused ones are H or OH. Bridge positions count the residues as written; N and C are the ends. Square brackets hold non-standard residues; d marks the D form. Peptide text beside a SMILES is read from it. I, II: the chains in the order shown. Gly(N-piperonyl) = O=C(O)CNCc1ccc2c(c1)OCO2; X1 = CC(CN(CC(=O)[*:2])[*:1])c1ccccc1; Nleu = CC(C)CNCC(=O)O; Nlys = NCCCCNCC(=O)O; Ahx = NCCCCCC(=O)O; Nme = COCCNCC(=O)O; βAla = NCCC(=O)O

What was measured:
[1] = biological target: T1, VEGFR2 (Homo sapiens, UniProt P35968); assay: Fluorescence-based ELISA, VEGFR2 binding; conditions: vs GU40C4 (ref 12)
T1 construct: purchased R&D Systems
T1 sequence (P35968 20-1356): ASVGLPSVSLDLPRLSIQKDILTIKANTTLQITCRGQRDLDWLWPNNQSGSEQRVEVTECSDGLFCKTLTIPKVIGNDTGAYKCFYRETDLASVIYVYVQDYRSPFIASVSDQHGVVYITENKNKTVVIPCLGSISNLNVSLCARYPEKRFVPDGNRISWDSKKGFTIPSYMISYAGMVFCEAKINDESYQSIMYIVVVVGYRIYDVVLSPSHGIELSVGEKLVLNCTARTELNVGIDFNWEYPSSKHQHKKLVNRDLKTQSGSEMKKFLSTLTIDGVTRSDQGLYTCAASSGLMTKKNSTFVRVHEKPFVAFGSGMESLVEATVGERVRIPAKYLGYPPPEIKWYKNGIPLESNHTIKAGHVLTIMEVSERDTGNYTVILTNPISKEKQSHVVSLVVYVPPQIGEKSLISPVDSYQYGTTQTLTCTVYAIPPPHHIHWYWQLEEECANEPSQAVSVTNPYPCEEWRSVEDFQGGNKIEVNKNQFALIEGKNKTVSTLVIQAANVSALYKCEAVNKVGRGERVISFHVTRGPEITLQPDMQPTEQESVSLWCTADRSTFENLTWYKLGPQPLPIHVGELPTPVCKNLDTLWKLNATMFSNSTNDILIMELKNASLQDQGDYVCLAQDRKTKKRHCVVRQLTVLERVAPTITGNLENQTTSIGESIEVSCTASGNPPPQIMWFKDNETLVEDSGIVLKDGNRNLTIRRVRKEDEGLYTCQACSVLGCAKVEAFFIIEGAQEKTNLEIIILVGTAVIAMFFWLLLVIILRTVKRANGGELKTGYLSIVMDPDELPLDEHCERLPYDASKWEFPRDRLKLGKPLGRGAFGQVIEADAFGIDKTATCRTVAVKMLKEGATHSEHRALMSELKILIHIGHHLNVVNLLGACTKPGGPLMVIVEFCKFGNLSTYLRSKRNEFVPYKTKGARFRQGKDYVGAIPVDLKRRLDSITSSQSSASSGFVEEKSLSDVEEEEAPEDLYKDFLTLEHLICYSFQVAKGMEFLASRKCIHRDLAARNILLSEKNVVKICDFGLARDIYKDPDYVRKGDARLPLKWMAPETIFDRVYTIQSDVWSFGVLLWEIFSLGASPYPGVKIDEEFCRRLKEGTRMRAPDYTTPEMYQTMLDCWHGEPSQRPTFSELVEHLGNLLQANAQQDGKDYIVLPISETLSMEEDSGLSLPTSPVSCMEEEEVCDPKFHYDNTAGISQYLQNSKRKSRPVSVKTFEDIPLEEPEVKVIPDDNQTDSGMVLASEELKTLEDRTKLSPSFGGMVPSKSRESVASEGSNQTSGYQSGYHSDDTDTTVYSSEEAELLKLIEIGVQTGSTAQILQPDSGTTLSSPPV
Experimental: Wells were washed with 5 × 200 μL of PBS and fluorescence was measured at 520 nm using a plate reader (Fluostar Optima, BMG Laboratories, Durham, NC).

[2] = biological target: T2, VEGFR2 (PAE-KDR cells) (Homo sapiens, UniProt P35968); assay: VEGFR2 autophosphorylation assay, PAE-KDR cells; assay type: cell-based
T2 construct: host or cells: PAE-KDR cells
T2 sequence (P35968 20-1356): as above
Experimental: Experiments were conducted using PAE-KDR (Sibtech Inc., Brookfield, CT) and HUVEC (Sciencecell, Carlsbad, CA) cells. […] Cells were harvested with lysis buffer, and lysates were separated by SDS-PAGE and transferred to PVDF membranes. Membranes were probed with anti phospho-VEGF receptor 2 (Tyr1175, 19A10) or total anti-VEGFR2 primary antibodies (Cell Signaling Technology, Danvers, MA) and subsequently developed with appropriate HRP-conjugated secondary antibody (BioRad Laboratories, Hercules, CA) followed by enhanced chemiluminescent detection (Pierce).

[3] = test system: Met-1 cells; conditions: 2.5 μM GU81, 72 hours, serum-free DMEM, p < 0.05 vs SFM, 1-way ANOVA
Experimental: Tumor-conditioned media (TCM) was collected and RNA harvested using TRIzol (Invitrogen) according to the manufacturer's directions at 24, 48, and 72 hours post-treatment. The quality of RNA was evaluated using spectrophotometry. The cDNA used for subsequent PCR was made using iScript (Bio-Rad Laboratories). The expression of VEGF was analyzed by quantitative real-time PCR using assay on demand from Applied Biosystems (Mm00437308_m1). […] Quantitative real-time PCR was performed in a reaction volume of 20 μL of cDNA and each reaction was performed in triplicate. We used the comparative Ct method to compute relative expression values. TCM was diluted 1:5 prior to analysis for VEGF concentration using the Quantikine Mouse VEGF Immunoassay (R&D Systems).
Results are expressed as mean ± SEM.

[4] = test system: HUVEC; conditions: when compared to GU40C4
[5] = test system: Met-1 cells; conditions: GU81 treatment, mRNA and protein
[6] = test system: MMTV-PyMT tumors; conditions: cited from earlier work
Source text: Macrophage infiltration is associated with poor prognosis in a number of different tumor types, including breast cancer. […] This increase in macrophage infiltration is puzzling ...

[7] = test system: MMTV-PyMT transgenic model of breast cancer; conditions: cited from earlier work
[8] = test system: 4T1 syngenic breast cancer model; conditions: 4T1 syngeneic model; cited from earlier work
[9] = test system: MMTV-PyMT tumors; assay: Tumor VEGF immunohistochemistry; conditions: percent VEGF positive area, vs control, p ≤ 0.05 for GU81 alone, t-test; 3 animals/group, 5 sections/animal
[10] = test system: MMTV-PyMT tumors; assay: H&E histology of MMTV-PyMT tumors; conditions: formalin-fixed tumors after 19 days treatment
[11] = test system: MMTV-PyMT tumors; assay: F4/80 macrophage infiltration immunohistochemistry; conditions: percent F4/80 positive area, p ≤ 0.05 vs control, t-test; 3 animals/group, 5 sections/animal
[12] = test system: MMTV-PyMT tumors; assay: Endomucin immunohistochemistry (vessel number, vascular area, vessel size)
[13] = test system: MMTV-PyMT transgenic model of breast cancer; assay: MMTV-PyMT breast cancer therapy study: tumor volume, tumor weight, efficacy; conditions: for tumor volume vs control: MMTV-PyMT mice, 19 days from age 6 weeks, GU81 260 μg/day osmotic pump, doxorubicin 2 mg/kg once weekly, 2-way ANOVA; for total tumor weight vs control: at sacrifice (age 60 days), p ≤ 0.01 for combination, 1-way ANOVA
[14] = test system: MMTV-PyMT tumors; assay: Perilipin and adiponectin immunohistochemistry of MMTV-PyMT tumors (tumor fat content); conditions: for tumor fat content (residual adipose tissue): MMTV-PyMT tumors after 19 days treatment, H&E and adipocyte markers
[15] = test system: MMTV-PyMT tumors

COCCN(CC(=O)N(CC(=O)N(CC(=O)N(CCCCN)CC(=O)N(CC(=O)N(CCCCN)CC(=O)N(CCCCN)CC(=O)NCCCCCC(=O)NCCC(=O)N[C@@H](CCCCNC(=O)CN(CCCCN)C(=O)CN(CCCCN)C(=O)CN(CC(C)C)C(=O)CN(CCCCN)C(=O)CN(Cc1ccc2c(c1)OCO2)C(=O)CN(CC(C)c1ccccc1)C(=O)CN(CCOC)C(=O)CN(CC(C)C)C(=O)CNCCCCN)C(N)=O)CC(C)C)Cc1ccc2c(c1)OCO2)CC(C)c1ccccc1)C(=O)CN(CC(C)C)C(=O)CNCCCCN (stereo partly drawn) [GU81] (I: H-[Nlys][Nleu][Nme][X1][Gly(N-piperonyl)][Nlys][Nleu][Nlys][Nlys][Ahx][βAla]K-NH2 / II: H-[Nlys][Nleu][Nme][X1][Gly(N-piperonyl)][Nlys][Nleu][Nlys][Nlys]; amide I:12-II:C)
improvement of KD over the original GU40C4 [1]: 3 -fold
block of VEGF-induced VEGFR2 phosphorylation ([2]; PAE-KDR cells, increasing concentrations of GU81 15 min, VEGF 1.3 nM 7 min, 37°C, Western blot): effectively blocks VEGF-induced VEGFR2 phosphorylation of PAE-KDR cells in a dose-dependent manner
in vitro efficacy ([2]; abstract: compared to GU40C4, discussion: in vitro biological efficacy): increased in vitro efficacy compared to GU40C4; also recorded: potent in vitro biological efficacy
VEGF mRNA level in Met-1 cells [3]: significantly increased after 72 hours of GU81 treatment; also recorded: significant increase in VEGF gene transcription following 72 hrs of GU81 treatment
expected inhibition of endothelial cell proliferation [4]: more potent inhibitor of endothelial cell proliferation when compared to GU40C4
VEGF expression in Met-1 cells (discussion) [5]: increased VEGF expression following treatment with GU81
macrophage infiltration, single agent [6]: increases macrophage infiltration as a single-agent
in vivo efficacy as a single agent, MMTV-PyMT model [7]: does not demonstrate in vivo efficacy as a single agent in the MMTV-PyMT model of breast cancer
tumor size, 4T1 model, single agent [8]: effectively reduces tumor size and MVD
tumor VEGF level [9]: increased tumor-VEGF levels and macrophage infiltration; also recorded: significantly increased levels of VEGF compared to tumors from control-treated mice; also recorded: increased tumor VEGF expression in this model
tumor histology / progression / invasion [10]: no effect on tumor weight, histology, tumor fat content, or tumor growth index; also recorded: did not alter this histology
tumor histology / progression / invasion ([10]; listed as GUI81): clearly invasive adenocarcinomas
macrophage infiltration vs control [11]: increased tumor-VEGF levels and macrophage infiltration; also recorded: significantly increased following treatment with GU81; also recorded: induces macrophage infiltration in vivo
total vessel number ([12]; endomucin, vessels per 200× field, 3 animals/group, 5 sections/animal): no effect on total vessel number; also recorded: do not see a decrease in vessel number
total vascular area, GU81 alone ([12]; percent endomucin positive area per 200× field, vs control, p < 0.001, t-test): able to significantly to reduce total vascular area as a single agent; also recorded: decreased total vascular area; also recorded: reduces total vascular area and vessel size; also recorded: decrease in total vascular area and vessel size
vessel size ([12]; percent fluorescent area divided by total vessel number, vs control, t-test): reduces total vascular area and vessel size; also recorded: decrease in total vascular area and vessel size
therapeutic efficacy in MMTV-PyMT model ([13]; GU81 260 μg/day alone or with doxorubicin 2 mg/kg once weekly, 19 days): little therapeutic efficacy when used alone; also recorded: not effective as a single agent in the MMTV-PyMT model of breast cancer
tumor volume vs control [13]: did not have a significant effect on either tumor volume or tumor weight
total tumor weight vs control [13]: no effect on tumor weight, histology, tumor fat content, or tumor growth index; also recorded: did not have a significant effect on either tumor volume or tumor weight
tumor fat content (residual adipose tissue) [14]: no effect on tumor weight, histology, tumor fat content, or tumor growth index

COc1cccc2c1C(=O)c1c(O)c3c(c(O)c1C2=O)C[C@@](O)(C(=O)CO)C[C@@H]3O[C@H]1C[C@H](N)[C@H](O)[C@H](C)O1 [doxorubicin, reference compound]
cytostatic / cytocidal character of the therapy ([15]; from proliferation, apoptosis and growth index): cytostatic
tumor growth index vs control ([15]; phospho-histone-3 / cleaved caspase-3 positive cells per 200× field, vs control, p ≤ 0.05 for combination, 1-way ANOVA): no effect on tumor weight, histology, tumor fat content, or tumor growth index
phospho-histone-3 positive cells (proliferation) vs control ([15]; vs control, p ≤ 0.01 (doxorubicin, combination), 1-way ANOVA, 3 animals/group, 5 sections/animal): fewer phospho-histone-3 positive cells when compared to tumors from control treated animals
cleaved (active) caspase-3 positive cells (apoptosis) vs control ([15]; vs control, p ≤ 0.05 (doxorubicin), 1-way ANOVA, 3 animals/group, 5 sections/animal): significantly fewer active caspase-3 positive cells when compared to tumors from control-treated animals
tumor VEGF level [9]: neither treatment with doxorubicin alone or in combination with GU81 had significant effects on VEGF expression
tumor histology / progression / invasion [10]: no effect on tumor weight, histology, tumor fat content, or tumor growth index; also recorded: displayed areas of invasive carcinoma; although the invasive component of the tumor was reduced when compared to control and GU81-treated animals; also recorded: clearly invasive adenocarcinomas
tumor volume vs control [13]: significantly reduced tumor volume compared to control treated animals
total tumor weight vs control [13]: no effect on tumor weight, histology, tumor fat content, or tumor growth index
adiponectin staining vs control ([14]; Cy3 positive area, vs control, p≤0.05, t-test): significantly increased
tumor fat content (residual adipose tissue) [14]: no effect on tumor weight, histology, tumor fat content, or tumor growth index
